Source: ChEMBL document CHEMBL3616476, “Expanding the structural diversity of Bcr-Abl inhibitors: Hybrid molecules based on GNF-2 and Imatinib” (Bioorg Med Chem Lett, 2015)

How the values were obtained:
[1] = biological target: Bcr/Abl fusion protein (Homo sapiens, UniProt P00519); experiment: Inhibition of Bcr-Abl (unknown origin) after 1 hr by luminescence assay; assay type: protein assay
[2] = tested on: K562; experiment: cells; conditions: Homo sapiens, K562, 48 h
[3] = biological target: K562 (Homo sapiens); experiment: Antiproliferative activity against human K562 cells by MTT assay

Sequence of Bcr/Abl fusion protein (P00519 whole entry, the tested form may be a part): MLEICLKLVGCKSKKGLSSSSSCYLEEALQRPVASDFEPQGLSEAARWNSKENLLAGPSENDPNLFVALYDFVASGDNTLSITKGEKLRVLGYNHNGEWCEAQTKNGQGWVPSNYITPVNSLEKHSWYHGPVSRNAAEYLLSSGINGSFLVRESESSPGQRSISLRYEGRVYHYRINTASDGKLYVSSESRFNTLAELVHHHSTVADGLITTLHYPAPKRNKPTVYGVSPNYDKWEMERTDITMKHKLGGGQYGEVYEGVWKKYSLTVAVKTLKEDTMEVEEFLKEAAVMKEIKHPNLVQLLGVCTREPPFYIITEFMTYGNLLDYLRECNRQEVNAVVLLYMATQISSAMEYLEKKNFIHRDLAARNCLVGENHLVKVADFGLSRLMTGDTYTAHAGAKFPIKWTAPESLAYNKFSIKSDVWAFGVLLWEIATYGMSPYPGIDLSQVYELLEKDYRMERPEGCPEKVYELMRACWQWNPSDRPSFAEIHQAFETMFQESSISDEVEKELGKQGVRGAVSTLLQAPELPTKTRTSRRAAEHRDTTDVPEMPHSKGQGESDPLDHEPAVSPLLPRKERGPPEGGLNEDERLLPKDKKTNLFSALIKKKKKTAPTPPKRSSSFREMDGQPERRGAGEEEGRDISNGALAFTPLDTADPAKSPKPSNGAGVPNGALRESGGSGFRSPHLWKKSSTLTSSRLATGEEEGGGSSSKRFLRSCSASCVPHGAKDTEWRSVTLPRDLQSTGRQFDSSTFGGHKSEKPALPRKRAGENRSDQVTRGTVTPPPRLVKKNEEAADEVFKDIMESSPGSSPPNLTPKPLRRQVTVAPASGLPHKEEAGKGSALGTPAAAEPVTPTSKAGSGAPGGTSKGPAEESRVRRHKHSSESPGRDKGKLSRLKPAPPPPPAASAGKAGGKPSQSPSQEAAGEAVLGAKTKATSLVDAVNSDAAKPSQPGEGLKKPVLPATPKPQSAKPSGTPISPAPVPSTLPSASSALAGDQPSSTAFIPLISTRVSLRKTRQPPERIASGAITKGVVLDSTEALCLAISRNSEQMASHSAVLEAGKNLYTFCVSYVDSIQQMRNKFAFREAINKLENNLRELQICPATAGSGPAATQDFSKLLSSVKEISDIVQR
Sequence of Bcr/Abl fusion protein (P11274 whole entry, further chain, the tested form may be a part): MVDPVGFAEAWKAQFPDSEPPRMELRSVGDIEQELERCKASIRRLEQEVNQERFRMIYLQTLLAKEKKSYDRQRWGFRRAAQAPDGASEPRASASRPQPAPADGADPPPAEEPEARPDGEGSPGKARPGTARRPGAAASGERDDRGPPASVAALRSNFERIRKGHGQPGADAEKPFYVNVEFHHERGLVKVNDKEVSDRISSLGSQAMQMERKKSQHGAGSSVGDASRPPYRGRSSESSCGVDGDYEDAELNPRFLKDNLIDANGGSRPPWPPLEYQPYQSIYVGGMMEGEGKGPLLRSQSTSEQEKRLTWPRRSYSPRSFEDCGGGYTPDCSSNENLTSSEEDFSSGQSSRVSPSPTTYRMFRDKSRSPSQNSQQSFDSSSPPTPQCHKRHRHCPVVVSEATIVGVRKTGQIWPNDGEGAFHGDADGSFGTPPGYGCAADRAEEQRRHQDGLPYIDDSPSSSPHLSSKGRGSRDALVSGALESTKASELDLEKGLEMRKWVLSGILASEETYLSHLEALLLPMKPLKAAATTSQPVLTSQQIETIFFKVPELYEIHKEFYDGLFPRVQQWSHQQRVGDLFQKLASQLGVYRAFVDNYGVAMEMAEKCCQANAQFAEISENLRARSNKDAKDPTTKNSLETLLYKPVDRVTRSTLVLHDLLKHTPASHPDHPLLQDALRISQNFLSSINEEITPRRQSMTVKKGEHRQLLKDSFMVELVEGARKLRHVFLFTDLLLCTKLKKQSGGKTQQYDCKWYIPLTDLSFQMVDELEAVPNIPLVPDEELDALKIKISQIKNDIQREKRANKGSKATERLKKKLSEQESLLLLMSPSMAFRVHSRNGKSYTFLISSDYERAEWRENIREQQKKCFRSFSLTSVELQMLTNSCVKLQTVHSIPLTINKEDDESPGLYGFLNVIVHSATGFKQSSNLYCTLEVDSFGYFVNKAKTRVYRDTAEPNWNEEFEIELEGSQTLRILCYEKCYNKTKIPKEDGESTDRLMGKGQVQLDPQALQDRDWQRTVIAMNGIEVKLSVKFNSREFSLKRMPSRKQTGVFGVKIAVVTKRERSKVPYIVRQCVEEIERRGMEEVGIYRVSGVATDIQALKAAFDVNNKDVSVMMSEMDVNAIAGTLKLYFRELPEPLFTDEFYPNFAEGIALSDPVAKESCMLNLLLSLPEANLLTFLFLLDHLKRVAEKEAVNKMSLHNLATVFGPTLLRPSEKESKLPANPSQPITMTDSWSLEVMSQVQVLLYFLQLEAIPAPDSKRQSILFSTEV

IC50 [1] [µM]	IC50 [2] [µM]	IC50 [3] [µM]	Structure (SMILES)
2.59	65.3	–	COc1ccc(Nc2cc(-c3ccc(C(=O)NCCNC(=O)c4cccc(C(F)(F)F)c4)cc3)ncn2)cc1
8.53	11.2	–	COc1ccc(Nc2cc(-c3ccc(C(=O)NCCNC(=O)c4cccc(OC)c4)cc3)ncn2)cc1
14.5	38.5	–	COc1ccc(Nc2cc(-c3ccc(C(=O)NCCNC(=O)c4ccccc4C)cc3)ncn2)cc1
> 100	0.83	–	COc1ccc(Nc2cc(-c3ccc(C(=O)NCCNC(=O)c4ccc(C(C)(C)C)cc4)cc3)ncn2)cc1
9.25	0.85	–	COc1ccc(Nc2cc(-c3ccc(C(=O)NCCNC(=O)c4cccc(N(C)C)c4)cc3)ncn2)cc1
11.3	33.9	–	COc1ccc(Nc2cc(-c3ccc(C(=O)NCCNC(=O)c4cccc(F)c4)cc3)ncn2)cc1
9.24	0.64	–	COc1ccc(Nc2cc(-c3ccc(C(=O)NCCNC(=O)c4ccccc4Cl)cc3)ncn2)cc1
–	10.9	–	COc1ccc(Nc2cc(-c3ccc(C(=O)NCCNC(=O)c4ccc(F)cc4)cc3)ncn2)cc1
4.4	6.2	–	COc1ccc(Nc2cc(-c3ccc(C(=O)NCCNC(=O)c4ccc(F)c(F)c4)cc3)ncn2)cc1
6.2	8.5	–	COc1ccc(Nc2cc(-c3ccc(C(=O)NCCNC(=O)c4c(F)cccc4Cl)cc3)ncn2)cc1
8.96	8.96	–	COc1ccc(Nc2cc(-c3ccc(C(=O)N4CCN(C(=O)c5ccccc5F)CC4)cc3)ncn2)cc1
–	73.9	–	COc1ccc(Nc2cc(-c3ccc(C(=O)N4CCN(C(=O)c5ccccc5Cl)CC4)cc3)ncn2)cc1
0.017	35.7	–	COc1ccc(Nc2cc(-c3ccc(C(=O)N4CCN(C(=O)c5ccc(F)cc5)CC4)cc3)ncn2)cc1
> 100	> 100	–	COc1ccc(Nc2cc(-c3ccc(C(=O)N4CCN(C(=O)c5ccc(OC)cc5)CC4)cc3)ncn2)cc1
–	42.2	–	COc1ccc(Nc2cc(-c3ccc(C(=O)N4CCN(C(=O)c5cccc(F)c5)CC4)cc3)ncn2)cc1
–	35	35	COc1ccc(Nc2cc(-c3ccc(C(=O)N4CCN(C(=O)c5ccc(Cl)cc5Cl)CC4)cc3)ncn2)cc1
–	15.3	15.3	COc1ccc(Nc2cc(-c3ccc(C(=O)N4CCN(C(=O)c5ccc(F)c(F)c5)CC4)cc3)ncn2)cc1
–	51.9	51.9	COc1ccc(Nc2cc(-c3ccc(C(=O)N4CCN(C(=O)c5cccc(C(F)(F)F)c5)CC4)cc3)ncn2)cc1
> 100	> 100	–	COc1ccc(Nc2cc(-c3ccc(C(=O)N4CCN(C(=O)c5cccc(C)c5)CC4)cc3)ncn2)cc1
–	> 100	> 100	COc1ccc(Nc2cc(-c3ccc(C(=O)N4CCN(C(=O)c5cccc(N(C)C)c5)CC4)cc3)ncn2)cc1
